# According to EP2322194A2 (Reprise Biopharmaceutics, LLC, priority 2003, dated 2005):
# “And” between values parts separate entries of the source, which are not always exact repeats. Equal values may be shown once. Read-outs that look alike come from different tables or passages of the source.
# Tested on: over-hydrated, healthy, non-smoking male and female volunteers
# Type: in vivo, human
# Settings: for Mean peak urine osmolality: at 2 hours; for Mean nadir urine output: end of 2 hour infusion; for Urine Output / Urine Osmolality: individual subjects
# Procedure: Briefly, an open-label, crossover study with 8 healthy, over-hydrated, non-smoking male and female volunteers, age 18-40. The subjects were dosed initially with 0.5 ng/kg dose, then with the 1.0 ng/kg dose and finally the 2.0 ng/kg dose. Pharmacodynamic and pharmacokinetic parameters were evaluated at each dose level. A washout period of two days (48 hours) was observed between dosing. Eight subjects evaluated in this study, 5 males, and 3 females. […] Each subject remained in the clinic from one day prior to first dosing to one day after last dosing for a total of 7 days. […] At this point over-hydration was discontinued. […] Urine-specific gravity was also measured. […] This same procedure was followed for the 1.0 ng/kg and 2.0 ng/kg infusions. […] Criteria for evaluation in the study included urine output over time, urine osmolality over time, urine-specific gravity over time, and […] osmolality and sodium over time. Statistical analysis on the above criteria was performed. The statistical analysis is descriptive and all statistical hypothesis testing was done for exploratory purposes. […] The second and third estimation used 200 mOsm/kg and 400 mOsm/kg as cut off levels for 'onset' and 'end' of action, respectively. […] The overall duration of action was estimated for each dose group using the nonparametric Kaplan-Meier method. […] Furthermore, the duration of action was presented for each treatment group using the mean, SD, median, minimum and maximum values. The dose-response relationship between duration of action and dose was investigated using an appropriate linear or nonlinear model.
# [1] = 0.5 ng/kg, time 0 min (baseline)
# [2] = 0.5 ng/kg, time -20 min (baseline)
# [3] = 1.0 ng/kg, time 0 min (baseline)
substance,measurement,setting,value
1-desamino-8-D-arginine vasopressin [desmopressin],duration of antidiuretic effect,0.5 ng/kg dose,approximately 180 minutes
same,Mean peak urine osmolality,0.5 ng/kg dose,206.0 mOsm/kg
same,Baseline mean urine osmolality,0.5 ng/kg dose,55.8 mOsm/kg
same,Baseline mean urine output,0.5 ng/kg dose,18.6 mL/min
same,Mean nadir urine output,0.5 ng/kg dose,7.1 mL/min
same,"Urine Osmolality, Mean",[1],57.6 mOsm/kg
same,"Urine Output, Mean",[1],18.4 mL/min
same,"Urine Osmolality, Mean","0.5 ng/kg, time 20 min",73.1 mOsm/kg
same,Urine Output,"0.5 ng/kg, time 20 min",16.7 mL/min (2×) and 16.4 mL/min and 11.8 mL/min
same,"Urine Osmolality, Mean","0.5 ng/kg, time 40 min",108.3 mOsm/kg
same,"Urine Output, Mean","0.5 ng/kg, time 40 min",10.3 mL/min
same,"Urine Osmolality, Mean","0.5 ng/kg, time 60 min",136.1 mOsm/kg
same,"Urine Output, Mean","0.5 ng/kg, time 60 min",9.6 mL/min
same,"Urine Osmolality, Mean","0.5 ng/kg, time 80 min",165.8 mOsm/kg
same,"Urine Osmolality, Mean","0.5 ng/kg, time 100 min",186.3 mOsm/kg
same,"Urine Output, Mean","0.5 ng/kg, time 100 min",7.7 mL/min
same,"Urine Osmolality, Mean","0.5 ng/kg, time 120 min",206.0 mOsm/kg
same,"Urine Output, Mean","0.5 ng/kg, time 120 min",7.1 mL/min
same,"Urine Osmolality, Mean","0.5 ng/kg, time 140 min",188.3 mOsm/kg
same,"Urine Output, Mean","0.5 ng/kg, time 140 min",9.6 mL/min
same,"Urine Osmolality, Mean","0.5 ng/kg, time 160 min",155.8 mOsm/kg
same,"Urine Output, Mean","0.5 ng/kg, time 160 min",9.7 mL/min
same,"Urine Osmolality, Mean","0.5 ng/kg, time 180 min",136.8 mOsm/kg
same,"Urine Output, Mean","0.5 ng/kg, time 180 min",11.1 mL/min
same,"Urine Osmolality, Mean","0.5 ng/kg, time 200 min",157.8 mOsm/kg
same,"Urine Output, Mean","0.5 ng/kg, time 200 min",10.4 mL/min
same,"Urine Osmolality, Mean","0.5 ng/kg, time 220 min",136.5 mOsm/kg
same,"Urine Output, Mean","0.5 ng/kg, time 220 min",10.4 mL/min
same,"Urine Osmolality, Mean","0.5 ng/kg, time 240 min",141.7 mOsm/kg
same,Urine Output,"0.5 ng/kg, time 240 min",10.5 mL/min and 11.4 mL/min and 4.2 mL/min
same,"Urine Osmolality, Mean","0.5 ng/kg, time 260 min",147.5 mOsm/kg
same,"Urine Output, Mean","0.5 ng/kg, time 260 min",9.7 mL/min
same,Urine Osmolality,"0.5 ng/kg, time 260 min",80 mOsm/kg and 215 mOsm/kg
same,"Urine Osmolality, Mean","0.5 ng/kg, time 280 min",169.0 mOsm/kg
same,Urine Osmolality,"0.5 ng/kg, time 280 min",88 mOsm/kg and 250 mOsm/kg
same,"Urine Osmolality, Mean","0.5 ng/kg, time 300 min",193.0 mOsm/kg
same,"Urine Output, Mean","0.5 ng/kg, time 300 min",4.1 mL/min
same,Urine Osmolality,"0.5 ng/kg, time 300 min",193 mOsm/kg
same,Urine Output,"0.5 ng/kg, time 300 min",4.1 mL/min
same,"Urine Osmolality, Mean","0.5 ng/kg, time 320 min",156.0 mOsm/kg
same,"Urine Output, Mean","0.5 ng/kg, time 320 min",5.0 mL/min
same,Urine Osmolality,"0.5 ng/kg, time 320 min",156 mOsm/kg
same,Urine Output,"0.5 ng/kg, time 320 min",5 mL/min
same,"Urine Osmolality, Mean","0.5 ng/kg, time 340 min",133.0 mOsm/kg
same,"Urine Output, Mean","0.5 ng/kg, time 340 min",6.4 mL/min
same,Urine Osmolality,"0.5 ng/kg, time 340 min",133 mOsm/kg
same,Urine Output,"0.5 ng/kg, time 340 min",6.4 mL/min
same,"Urine Osmolality, Mean","0.5 ng/kg, time 360 min",120.0 mOsm/kg
same,"Urine Output, Mean","0.5 ng/kg, time 360 min",7.3 mL/min
same,Urine Osmolality,"0.5 ng/kg, time 360 min",120 mOsm/kg
same,Urine Output,"0.5 ng/kg, time 360 min",7.3 mL/min
same,"Urine Osmolality, Mean",[2],55.8 mOsm/kg
same,"Urine Output, Mean",[2],18.6 mL/min
same,Mean peak urine osmolality,1.0 ng/kg dose,444.7 mOsm/kg
same,Baseline mean urine osmolality,1.0 ng/kg dose,55.8 mOsm/kg
same,Baseline mean urine output,1.0 ng/kg dose,16.6 mL/min
same,Mean nadir urine output,1.0 ng/kg dose,1.3 mL/min
same,"Urine Osmolality, Mean",[3],56.5 mOsm/kg
same,"Urine Output, Mean",[3],16.7 mL/min
same,Urine Output,[3],17.4 mL/min
same,"Urine Osmolality, Mean","1.0 ng/kg, time 20 min",67.1 mOsm/kg
same,Urine Output,"1.0 ng/kg, time 20 min",11.2 mL/min and 10.4 mL/min
same,"Urine Osmolality, Mean","1.0 ng/kg, time 40 min",167.0 mOsm/kg
same,"Urine Output, Mean","1.0 ng/kg, time 40 min",7.0 mL/min
same,Urine Output,"1.0 ng/kg, time 40 min",5.7 mL/min and 7.6 mL/min
same,"Urine Osmolality, Mean","1.0 ng/kg, time 60 min",259.4 mOsm/kg
same,"Urine Output, Mean","1.0 ng/kg, time 60 min",3.7 mL/min
same,Urine Output,"1.0 ng/kg, time 60 min",3.5 mL/min
same,"Urine Osmolality, Mean","1.0 ng/kg, time 80 min",322.8 mOsm/kg
same,"Urine Output, Mean","1.0 ng/kg, time 80 min",2.0 mL/min
same,Urine Output,"1.0 ng/kg, time 80 min",0 mL/min
same,"Urine Osmolality, Mean","1.0 ng/kg, time 100 min",375.5 mOsm/kg
same,"Urine Output, Mean","1.0 ng/kg, time 100 min",2.5 mL/min
same,Urine Output,"1.0 ng/kg, time 100 min",3.7 mL/min
same,"Urine Osmolality, Mean","1.0 ng/kg, time 120 min",444.7 mOsm/kg
same,"Urine Output, Mean","1.0 ng/kg, time 120 min",1.3 mL/min
same,Urine Output,"1.0 ng/kg, time 120 min",0 mL/min
